We go through five compounds from PubChem BioAssay (NCI).

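Tested at 5 concentrations; 48 h exposure; 96-well plates; endpoints linearly interpolated, else capped at highest concentration. GI50 marks 50% less growth. TGI denotes the concentration required for complete inhibition of growth.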

Among the test systems are A498 renal; BT-549 breast; DU-145 prostate; NCI-H23 lung; PC-3 prostate; TK-10 renal; UACC-257 melanoma; UO-31 renal; CAKI-1 renal; HCT-15 colon; K-562 leukemia; SW-620 colon.
Common to all, as to assay: NCI-60 cell line screen, 48 h

Regarding `Clc1ccc2c(NCCNc3nc(-c4ccccc4)cc(-c4ccccc4)n3)ccnc2c1`, the GI50 was 2.15 µM in the test on A498 renal; 1.57 µM in the test on BT-549 breast; 1.79 µM in the test with DU-145 prostate; 1.87 µM in the test with NCI-H23 lung; 1.88 µM in the test with PC-3 prostate; 1.86 µM in the test with TK-10 renal. In addition, the GI50 is 2.03 µM in the test on UACC-257 melanoma and 1.54 µM in the test on UO-31 renal. The TGI came to 5.61 µM in the test with A498 renal; 3.2 µM in the test with BT-549 breast; 3.45 µM with DU-145 prostate; 3.8 µM in the test with NCI-H23 lung; 3.44 µM in the test with PC-3 prostate; 3.41 µM in the test with TK-10 renal. Also, the TGI with UACC-257 melanoma is 3.98 µM; in the test with UO-31 renal, 3.01 µM.

Turning to `Nc1nc(=O)n(C2OC(CO)C(O)C2O)cc1F` (stereo unspecified), the TGI in the test with A498 renal, in the test with CAKI-1 renal, in the test on HCT-15 colon, in the test on K-562 leukemia, in the test on NCI-H23 lung and in the test with SW-620 colon was above 100 µM in each case. For the same compound, the TGI in the test with UACC-257 melanoma and in the test with UO-31 renal was above 100 µM throughout.

As for `c1ccc2cc3n[se]nc3cc2c1`, the TGI in the test on CAKI-1 renal, in the test on HCT-15 colon, in the test on K-562 leukemia, with NCI-H23 lung, with SW-620 colon and with TK-10 renal was above 100 µM each time. The TGI in the test with UACC-257 melanoma and with UO-31 renal was above 100 µM in each case.

With `O=C(O)/C(=C\c1ccccc1)Cc1ccccc1`, the TGI in the test with A498 renal, in the test with BT-549 breast, in the test with CAKI-1 renal, in the test with DU-145 prostate, in the test on HCT-15 colon and with K-562 leukemia was above 100 µM throughout. In addition, the TGI with NCI-H23 lung, in the test with PC-3 prostate, in the test with SW-620 colon, in the test on TK-10 renal, in the test on UACC-257 melanoma and in the test on UO-31 renal was above 100 µM throughout.

Regarding `COc1cc2cc(C(=O)N3CC(COS(C)(=O)=O)c4c3cc([N+](=O)[O-])c3ccccc43)[nH]c2c(OC)c1OC` (stereo unspecified), the TGI was 53 µM with A498 renal; above 31.6 µM in the test on BT-549 breast; above 50 µM with CAKI-1 renal; above 22.4 µM with DU-145 prostate; above 31.6 µM in the test with HCT-15 colon; above 100 µM in the test on K-562 leukemia. Besides, the TGI with NCI-H23 lung, in the test on PC-3 prostate, in the test with SW-620 colon, in the test with TK-10 renal, in the test on UACC-257 melanoma and with UO-31 renal was above 31.6 µM in each case.
